Measured values from US20070173532A1, “New Piperidine Antibiotics” (Actelion Pharmaceuticals Ltd., priority 2004, published 2007).
Values after ≈ are worked out from the molar mass of the structure shown.

How the values were obtained:
Assay type in all cases: cell-based
S. pneumoniae 49619 = test: MIC by microdilution (NCCLS) against S. pneumoniae 49619; details: for MIC: Streptococcus pneumoniae, 49619, cation-adjusted Mueller-Hinton Broth, pH 7.2-7.3, read-out: MIC S. Pneunoniae 49619
Method: (§1) These assays have been performed following the description given in “Methods for dilution Antimicrobial Susceptibility Tests for Bacteria that Grow Aerobically, 4th ed.; Approved standard: NCCLS Document M7-A4; National Committee for Clinical Laboratory Standards: Villanova, Pa., USA, 1997”. Minimal inhibitory concentrations (MICs; mg/l) were determined in cation-adjusted Mueller-Hinton Broth (BBL) by a microdilution method following NCCLS guidelines (National Committee for Clinical Laboratory Standards. Methods for Dilution Antimicrobial Susceptibility). The pH of the test medium was 7.2-7.3. All Examples were tested against several Gram positive and Gram negative bacteria.

E. faecalis 29212 = test: MIC by microdilution (NCCLS) against E. faecalis 29212; details: pH 7.2-7.3; for MIC: Enterococcus faecalis, 29212, cation-adjusted Mueller-Hinton Broth
Method: as §1

S. aureus 29213 = test: MIC by microdilution (NCCLS) against S. aureus 29213; details: pH 7.2-7.3; for MIC: Staphylococcus aureus, 29213, cation-adjusted Mueller-Hinton Broth
Method: as §1

S. Pneunoniae A70 = test: MIC by microdilution (NCCLS) against S. Pneunoniae A70; details: cation-adjusted Mueller-Hinton Broth, pH 7.2-7.3
Method: as §1

S. aureus A798 = test: MIC by microdilution (NCCLS) against S. aureus A798; details: pH 7.2-7.3; for MIC: Staphylococcus aureus, A798, cation-adjusted Mueller-Hinton Broth
Method: as §1

E. faecium A949 = test: MIC by microdilution (NCCLS) against E. faecium A949; details: pH 7.2-7.3; for MIC: Enterococcus faecium, A949, cation-adjusted Mueller-Hinton Broth
Method: as §1

[1] = cation-adjusted Mueller-Hinton Broth

Structure (SMILES)	MIC S. Pneunoniae 49619 (S. pneumoniae 49619; cation-adjusted Mueller-Hinton Broth, pH 7.2-7.3) [µg/mL]	MIC E. faecalis 29212 (E. faecalis 29212; [1]) [µg/mL]	MIC S. aureus 29213 (S. aureus 29213; [1]) [µg/mL]	MIC S. Pneunoniae A70 (S. Pneunoniae A70) [µg/mL]	MIC S. aureus A798 (S. aureus A798; [1]) [µg/mL]	MIC E. faecium A949 (E. faecium A949; [1]) [µg/mL]	MIC (S. pneumoniae 49619) [µg/mL]	MIC (E. faecalis 29212) [µg/mL]	MIC (S. aureus 29213) [µg/mL]	MIC (S. Pneunoniae A70) [µg/mL]	MIC (S. aureus A798) [µg/mL]	MIC (E. faecium A949) [µg/mL]
COc1cnc2cccc(C(O)CC[C@@H]3CCN(C/C=C/c4ccccc4)C[C@@H]3C(=O)O)c2c1 (mixture of isomers) [Example 10, (3R,4R)-4-[(3RS)-3-hydroxy-3-(3-methoxy-quinolin-5-yl)-propyl]-1-trans-(3-phenyl-allyl)-piperidine-3-carboxylic acid]	1 (≈ 2.17 µM)	4 (≈ 8.68 µM)	0.5 (≈ 1.09 µM)	4 (≈ 8.68 µM)	0.25 (≈ 0.543 µM)	4 (≈ 8.68 µM)						
COc1cnc2cccc(OCC[C@@H]3CCN(CCSc4cccs4)C[C@@H]3CCC(=O)O)c2c1 [Example 1, 3-{(3R,4S)-4-[2-(3-methoxy-quinolin-5-yloxy)-ethyl]-1-[2-(thiophen-2-ylsulfanyl)-ethyl]-piperidin-3-yl}-propionic acid]							0.5 (≈ 0.999 µM)	8 (≈ 16 µM)	0.5 (≈ 0.999 µM)	1 (≈ 2 µM)	0.25 (≈ 0.499 µM)	1 (≈ 2 µM)
COc1cnc2cccc(OCC[C@@H]3CCN(CCSc4cccs4)C[C@@H]3CCCO)c2c1 [Example 2, 3-{(3R,4S)4-[2-(3-methoxy-quinolin-5-yloxy)-ethyl]-1-[2-(thiophen-2-ylsulfanyl)-ethyl]-piperidin-3-yl}-propan-1-ol]							0.5 (≈ 1.03 µM)	2 (≈ 4.11 µM)	1 (≈ 2.05 µM)	1 (≈ 2.05 µM)	0.25 (≈ 0.514 µM)	2 (≈ 4.11 µM)
